# Read-outs that look alike come from different tables or passages of the source.
# Experiments:
# Type in all cases: cell-based
# [1] = test system: HIV-1NL4-3 Env-pseudotyped virus; conditions: TZM-bl
# Procedure: (§1) HIV-1 pseudoviruses were generated as described previously [32], [55]–[56]. Briefly, 293T cells (5×10^6 cells in 15 ml of growth medium in a T-75 culture flask) were cotransfected with 10 µg of an Env-expressing plasmid and 20 µg of a backbone plasmid pSG3deltaEnv that encodes Env-defective, luciferase-expressing HIV-1 genome using Lipofectamine 2000 reagent (Invitrogen). Pseudovirus-containing culture supernatants were harvested 48 hours after transfection and filtered by 0.45-mm pore size, and stored at −80°C in 1-ml aliquots until use. The 50% tissue culture infectious dose (TCID50) of a single thawed aliquot of each pseudovirus batch was determined in TZM-bl cells. […] Briefly, the peptides were prepared with ten series dilutions in a 3-fold stepwise manner and mixed with 100 TCID50 viruses and incubated 1 hour at room temperature. The mixture was added to TZM-bl cells (10^4/well) and incubation at 37°C for 48 hours. Luciferase activity was measured using luciferase assay regents (Promega, Medison, WI) and a Luminescence Counter (Promega) according to the manufacture's instructions.
# [2] = test system: HIV-1NL4-3 I37T pseudovirus; conditions: HIV-1NL4-3 I37T; TZM-bl, 48 h; mean ± SD of three independent experiments
# Procedure: as §1
# [3] = test system: HIV-1NL4-3 D36S/V38M pseudovirus; conditions: HIV-1NL4-3 D36S/V38M; TZM-bl, 48 h; mean ± SD of three independent experiments
# Procedure: The mutations were created using double-stranded DNA templates and selection of mutants with DpnI. For each mutation, the two primers contained the desired mutation and occupied the same starting and ending positions on opposite strands of the plasmid DNA. DNA synthesis was carried out by PCR in a 50-µL reaction volume using 1 µL of denatured plasmid template (1 ng/µL), 50 pmol of upper and lower primers and 5 U of high-fidelity thermostable polymerase PrimeStar (Takara, Dalian, China). PCR amplification was carried out for one cycle of denaturation at 98°C for 5 min, then 18 cycles of 98°C for 15 s and 68°C for 15 min, followed a final extension at 72°C for 10 min. The amplicons were treated with the restriction enzyme DpnI for 1 h at 37°C. DpnI-resistant molecules, which were rich in the desired mutants, were recovered by transforming Escherichia coli strain-DH5α to antibiotic resistance. The successful mutations were confirmed by sequencing.
# as §1
# [4] = test system: HIV-1NL4-3 L33S infectious molecular clone
# Procedure: The mutant viruses were generated by transient transfection of NL4-3 plasmids into 293T cells. The virus stocks were harvested 48 hours post-transfection and quantified for TCID50. […] In brief, 100 TCID50 viruses were used to infect TZM-bl cells in the presence or absence of serially diluted peptides. Two days post-infection, the cells were harvested and lysed in reporter lysis buffer, and the luciferase activity was measured. The IC50 was calculated as described above using GraphPad Prism software (GraphPad Prism software Inc., San Diego, CA).
substance,measurement,setting,value
enfuvirtide,IC50,"[1]; Fig. 5A, 100 TCID50, 48 h 37°C, luciferase, mean, three independent experiments, read-out: mean IC50, virus entry",70.7 nM
same,IC50,"[1]; HIV-1NL4-3 WT pseudovirus, Table 3, 48 h, mean ± SD of three independent experiments, read-out: IC50",62.5 ± 11.9 nM
same,IC50,[2],300 ± 55.1 nM
same,IC50,[3],322 ± 60.3 nM
same,IC50,"[4]; L33S infectious molecular clone of HIV-1NL4-3, TZM-bl, 100 TCID50, two days, mean ± SD of three independent experiments",> 750 nM
same,inhibitory activity on L33S virus (in words),"[4]; infectious molecular clone, T20 up to 750 nM",no any inhibitory activity at a concentration up to 750 nM

# — article PMC3293837, “Biophysical Property and Broad Anti-HIV Activity of Albuvirtide, a 3-Maleimimidopropionic Acid-Modified Peptide Fusion Inhibitor” (PLoS ONE, 2012)
